In ChEMBL document CHEMBL1145311 (Bioorg Med Chem Lett, 2006):

Molecular target: T1, Dihydrofolate reductase (Pneumocystis carinii, UniProt P16184)
T1 sequence (P16184 whole entry): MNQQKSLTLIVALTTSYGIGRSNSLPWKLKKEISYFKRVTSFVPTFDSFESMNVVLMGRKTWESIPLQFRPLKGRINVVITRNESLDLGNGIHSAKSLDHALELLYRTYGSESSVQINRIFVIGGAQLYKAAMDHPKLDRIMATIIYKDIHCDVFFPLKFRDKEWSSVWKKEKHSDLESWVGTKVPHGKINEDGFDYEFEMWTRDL
Description: Inhibition of Pneumocystis carinii DHFR

Nc1nc(N)c2nc(CN3c4ccccc4CCc4ccccc43)cnc2n1
IC50: 210 nM
